Assay results taken from PubChem BioAssay AID2060508 (Molecular Pharmacology Branch, DTP, NCI, 2025).

system: 454973-116-R2-J3-PDC spheroids, viability, % test/control; experiment: Anticancer human tumor 454973-116-R2-J3-PDC patient-derived pancreatic carcinoma cell line growth inhibition [GQUAD]; settings: second compound 0.316 µM; first compound 0.316 µM; hits give low values; spheroids with HUVEC and MSC
Summary of the method: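 Viability of tumor cells grown as complex spheroids with endothelial and stromal cells, exposed to drug combinations. Top concentration at or near clinical Cmax (else 10 microM), diluted in half-log increments.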
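Also: spheroids exposed to compounds for seven days; 100% = DMSO vehicle control viability.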

Row | Compound | viability, T/C [%]
1 | CC1COCCN1c1cc(-c2ccnn2C)c2ccnc(-c3ccn[nH]3)c2n1 (stereo unspecified) + Cc1cnc(CNC(=O)c2c(=O)c3ccc(N4CCCN(C)CC4)nc3n3c2sc2ccccc23)cn1 | 18.6
2 | CC1COCCN1c1cc(C2(S(C)(=N)=O)CC2)nc(-c2ccnc3[nH]ccc23)n1 (stereo unspecified) + Cc1cnc(CNC(=O)c2c(=O)c3ccc(N4CCCN(C)CC4)nc3n3c2sc2ccccc23)cn1 | 64.6
3 | Cn1ncnc1[C@H]1c2n[nH]c(=O)c3cc(F)cc(c23)N[C@@H]1c1ccc(F)cc1 + Cc1cnc(CNC(=O)c2c(=O)c3ccc(N4CCCN(C)CC4)nc3n3c2sc2ccccc23)cn1 | 41.6

same assay, conditions: second compound 0.316 µM; first compound 1 µM; hits give low values; spheroids with HUVEC and MSC

Row | Compound | viability, T/C [%]
4 | COc1ncnc(C2CC2)c1-c1ncc2cnn(Cc3ccc(-c4nc(C(F)(F)F)cn4C(C)C)cc3)c2n1 + Cc1[nH]c2ccc(F)cc2c1-c1nc2c3cccnc3c3ncccc3c2[nH]1 | 120
5 | CC(C)n1c(=O)n(C)c2cnc3cc(F)c(-c4ccc(OCCCN5CCCCC5)nc4)cc3c21 + Cc1cnc(CNC(=O)c2c(=O)c3ccc(N4CCCN(C)CC4)nc3n3c2sc2ccccc23)cn1 | 38.8
6 | CC1COCCN1c1cc(-c2ccnn2C)c2ccnc(-c3ccn[nH]3)c2n1 (stereo unspecified) + Cc1cnc(CNC(=O)c2c(=O)c3ccc(N4CCCN(C)CC4)nc3n3c2sc2ccccc23)cn1 | 16.8
7 | CC1COCCN1c1cc(C2(S(C)(=N)=O)CC2)nc(-c2ccnc3[nH]ccc23)n1 (stereo unspecified) + Cc1cnc(CNC(=O)c2c(=O)c3ccc(N4CCCN(C)CC4)nc3n3c2sc2ccccc23)cn1 | 50.5

same assay, conditions: second compound 0.316 µM; first compound 3.16 µM; hits give low values; spheroids with HUVEC and MSC

Row | Compound | viability, T/C [%]
8 | COc1ncnc(C2CC2)c1-c1ncc2cnn(Cc3ccc(-c4nc(C(F)(F)F)cn4C(C)C)cc3)c2n1 + Cc1[nH]c2ccc(F)cc2c1-c1nc2c3cccnc3c3ncccc3c2[nH]1 | 105
9 | CC(C)n1c(=O)n(C)c2cnc3cc(F)c(-c4ccc(OCCCN5CCCCC5)nc4)cc3c21 + Cc1cnc(CNC(=O)c2c(=O)c3ccc(N4CCCN(C)CC4)nc3n3c2sc2ccccc23)cn1 | 40.3
10 | CC1COCCN1c1cc(-c2ccnn2C)c2ccnc(-c3ccn[nH]3)c2n1 (stereo unspecified) + Cc1cnc(CNC(=O)c2c(=O)c3ccc(N4CCCN(C)CC4)nc3n3c2sc2ccccc23)cn1 | 19.4
11 | CC1COCCN1c1cc(C2(S(C)(=N)=O)CC2)nc(-c2ccnc3[nH]ccc23)n1 (stereo unspecified) + Cc1cnc(CNC(=O)c2c(=O)c3ccc(N4CCCN(C)CC4)nc3n3c2sc2ccccc23)cn1 | 30.3

same assay, conditions: second compound 0.316 µM; first compound 10 µM; hits give low values; spheroids with HUVEC and MSC

Row | Compound | viability, T/C [%]
12 | COc1ncnc(C2CC2)c1-c1ncc2cnn(Cc3ccc(-c4nc(C(F)(F)F)cn4C(C)C)cc3)c2n1 + Cc1[nH]c2ccc(F)cc2c1-c1nc2c3cccnc3c3ncccc3c2[nH]1 | 98.6
13 | CC(C)n1c(=O)n(C)c2cnc3cc(F)c(-c4ccc(OCCCN5CCCCC5)nc4)cc3c21 + Cc1cnc(CNC(=O)c2c(=O)c3ccc(N4CCCN(C)CC4)nc3n3c2sc2ccccc23)cn1 | 33.7
14 | CC1COCCN1c1cc(-c2ccnn2C)c2ccnc(-c3ccn[nH]3)c2n1 (stereo unspecified) + Cc1cnc(CNC(=O)c2c(=O)c3ccc(N4CCCN(C)CC4)nc3n3c2sc2ccccc23)cn1 | 21.6
15 | CC1COCCN1c1cc(C2(S(C)(=N)=O)CC2)nc(-c2ccnc3[nH]ccc23)n1 (stereo unspecified) + Cc1cnc(CNC(=O)c2c(=O)c3ccc(N4CCCN(C)CC4)nc3n3c2sc2ccccc23)cn1 | 27.8

same assay, conditions: second compound 1 µM; first compound 0.000999 µM; hits give low values; spheroids with HUVEC and MSC

Row | Compound | viability, T/C [%]
16 | Cn1ncnc1[C@H]1c2n[nH]c(=O)c3cc(F)cc(c23)N[C@@H]1c1ccc(F)cc1 + Cc1cnc(CNC(=O)c2c(=O)c3ccc(N4CCCN(C)CC4)nc3n3c2sc2ccccc23)cn1 | 64.1

same assay, conditions: second compound 1 µM; first compound 0.00316 µM; hits give low values; spheroids with HUVEC and MSC

Row | Compound | viability, T/C [%]
17 | Cn1ncnc1[C@H]1c2n[nH]c(=O)c3cc(F)cc(c23)N[C@@H]1c1ccc(F)cc1 + Cc1cnc(CNC(=O)c2c(=O)c3ccc(N4CCCN(C)CC4)nc3n3c2sc2ccccc23)cn1 | 64.6

same assay, conditions: second compound 1 µM; first compound 0.00999 µM; hits give low values; spheroids with HUVEC and MSC

Row | Compound | viability, T/C [%]
18 | Cn1ncnc1[C@H]1c2n[nH]c(=O)c3cc(F)cc(c23)N[C@@H]1c1ccc(F)cc1 + Cc1cnc(CNC(=O)c2c(=O)c3ccc(N4CCCN(C)CC4)nc3n3c2sc2ccccc23)cn1 | 62

same assay, conditions: second compound 1 µM; first compound 0.0316 µM; hits give low values; spheroids with HUVEC and MSC

Row | Compound | viability, T/C [%]
19 | COc1ncnc(C2CC2)c1-c1ncc2cnn(Cc3ccc(-c4nc(C(F)(F)F)cn4C(C)C)cc3)c2n1 + Cc1[nH]c2ccc(F)cc2c1-c1nc2c3cccnc3c3ncccc3c2[nH]1 | 103
20 | CC(C)n1c(=O)n(C)c2cnc3cc(F)c(-c4ccc(OCCCN5CCCCC5)nc4)cc3c21 + Cc1cnc(CNC(=O)c2c(=O)c3ccc(N4CCCN(C)CC4)nc3n3c2sc2ccccc23)cn1 | 52.4
21 | CC1COCCN1c1cc(-c2ccnn2C)c2ccnc(-c3ccn[nH]3)c2n1 (stereo unspecified) + Cc1cnc(CNC(=O)c2c(=O)c3ccc(N4CCCN(C)CC4)nc3n3c2sc2ccccc23)cn1 | 39.7
22 | CC1COCCN1c1cc(C2(S(C)(=N)=O)CC2)nc(-c2ccnc3[nH]ccc23)n1 (stereo unspecified) + Cc1cnc(CNC(=O)c2c(=O)c3ccc(N4CCCN(C)CC4)nc3n3c2sc2ccccc23)cn1 | 62.9
23 | Cn1ncnc1[C@H]1c2n[nH]c(=O)c3cc(F)cc(c23)N[C@@H]1c1ccc(F)cc1 + Cc1cnc(CNC(=O)c2c(=O)c3ccc(N4CCCN(C)CC4)nc3n3c2sc2ccccc23)cn1 | 53.3

same assay, conditions: second compound 1 µM; first compound 0.0999 µM; hits give low values; spheroids with HUVEC and MSC

Row | Compound | viability, T/C [%]
24 | Cn1ncnc1[C@H]1c2n[nH]c(=O)c3cc(F)cc(c23)N[C@@H]1c1ccc(F)cc1 + Cc1cnc(CNC(=O)c2c(=O)c3ccc(N4CCCN(C)CC4)nc3n3c2sc2ccccc23)cn1 | 56.3

same assay, conditions: second compound 1 µM; first compound 0.1 µM; hits give low values; spheroids with HUVEC and MSC

Row | Compound | viability, T/C [%]
25 | COc1ncnc(C2CC2)c1-c1ncc2cnn(Cc3ccc(-c4nc(C(F)(F)F)cn4C(C)C)cc3)c2n1 + Cc1[nH]c2ccc(F)cc2c1-c1nc2c3cccnc3c3ncccc3c2[nH]1 | 99.3
26 | CC(C)n1c(=O)n(C)c2cnc3cc(F)c(-c4ccc(OCCCN5CCCCC5)nc4)cc3c21 + Cc1cnc(CNC(=O)c2c(=O)c3ccc(N4CCCN(C)CC4)nc3n3c2sc2ccccc23)cn1 | 48.4
